We go through 1 substance from patent US11015200B2, “Antisense-induced exon exclusion in myostatin” (Sarepta Therapeutics, Inc., priority 2015, dated 2021).

{TEG} = triethylene glycol spacer

For series [1], the system named is exon 2 of the human myostatin gene (huMSTN). Briefly: Exon 2 skipping by RT-PCR in nucleofected primary human myoblasts. In kind it is cell-based. The following applies: first series (FIG. 3); primary human myoblasts nucleofected with PMO at 10, 3, 1, 0.3 μM, overnight; concentration inducing 50% exon skipping. On the procedure:
(§1) In vitro experiments were performed to investigate the ability of antisense oligonucleotides designed and prepared as described above to decrease the expression of exon 2 containing myostatin pre-mRNA. Both human rhabdomyosarcoma cells (RD cells; ATCC CCL-136) and primary human myoblasts were used in the experiments as noted. RD cells or primary human skeletal myoblasts were nucleofected with PMOs at 10, 3, 1 and 0.3 μM in SG or P3 nucleofector solution, respectively, and incubated overnight at 37° C. with 5% CO2. Total RNA was isolated from the cells and RT-PCR was performed using primers Myostatin EX1 Fwd (5′ […] SEQ ID NO: 48) and Myostatin EX3 Rev (5′ […] SEQ ID NO: 49). Amplified samples were analyzed using the LabChip Caliper to determine percent exon 2 skipping. EC50 values were determined using non-linear regression analysis in GraphPad Prism. EC50 values represent the concentration at which the test PMO induces 50% exon skipping.

For series [2] the test system is unchanged. In words: Exon 2 skipping by RT-PCR in nucleofected human rhabdomyosarcoma (RD) cells. In kind it is cell-based. The conditions noted are these: second series (FIG. 4); RD cells nucleofected with PMO at 10, 3, 1, 0.3 μM, overnight; concentration inducing 50% exon skipping; * = ambiguous fit on non-linear regression. On the procedure: as §1

For the substance “muhuMSTN-SD2(+18 − 07): PMO, 5′ TEG, 3′ H; targeting sequence CACTTACCAGCCCATCTTCTCCTGG (all phosphorodiamidate morpholino (PMO), 5' {TEG})”, the EC50 (usually the concentration that produces a half-maximal response) amounted to 3.88 µM in series [1] and 1.29 µM in series [2].
